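96-well plates; 48 h exposure; 5 concentrations. Endpoints by linear interpolation between flanking doses. Not reached: highest tested concentration assigned. Here, GI50 denotes the concentration required for 50% inhibition of growth.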 The source made the active and inactive calls. Rule as the data show it: active = GI50 up to about 1.1 µM and inactive = higher.
Columns and labels:
Experiment in all cases: NCI-60 cell line screen, 48 h
KM12 = tested on: KM12
SF-539 = tested on: SF-539
IGROV-1 = tested on: IGROV-1
MDA-MB-435 = tested on: MDA-MB-435
SK-MEL-28 = tested on: SK-MEL-28
RXF 393 = tested on: RXF 393
SF-268 = tested on: SF-268
HCT-116 = tested on: HCT-116
A549 = tested on: A549
A498 = tested on: A498
CCRF-CEM = tested on: CCRF-CEM
OVCAR-5 = tested on: OVCAR-5
786-0 = tested on: 786-0
MDA-MB-231 = tested on: MDA-MB-231
SK-OV-3 = tested on: SK-OV-3
HL-60 = tested on: HL-60
COLO 205 = tested on: COLO 205
HOP-92 = tested on: HOP-92
NCI-H460 = tested on: NCI-H460
BT-549 = tested on: BT-549

SMILES	GI50 (KM12)	GI50 (SF-539)	GI50 (IGROV-1)	GI50 (MDA-MB-435)	GI50 (SK-MEL-28)	GI50 (RXF 393)	GI50 (SF-268)	GI50 (HCT-116)	GI50 (A549)	GI50 (A498)	GI50 (CCRF-CEM)	GI50 (OVCAR-5)	GI50 (786-0)	GI50 (MDA-MB-231)	GI50 (SK-OV-3)	GI50 (HL-60)	GI50 (COLO 205)	GI50 (HOP-92)	GI50 (NCI-H460)	GI50 (BT-549)
CC(=O)c1sc2[n+](c1C)C(=O)/C(=C\c1ccccc1Cl)S2	17.3 µM (inactive)	21.8 µM (inactive)	18.3 µM (inactive)	15.3 µM (inactive)	16.7 µM (inactive)	26.1 µM (inactive)	23.2 µM (inactive)	20.7 µM (inactive)	19.6 µM (inactive)	29.7 µM (inactive)	27.6 µM (inactive)	24.3 µM (inactive)	21.9 µM (inactive)	25.4 µM (inactive)	25.1 µM (inactive)	20.7 µM (inactive)	14.9 µM (inactive)	56.2 µM (inactive)	16.3 µM (inactive)	–
N=C(CC/C(N)=N/O)NO	> 100 µM (inactive)	–	> 100 µM (inactive)	> 100 µM (inactive)	> 100 µM (inactive)	> 100 µM (inactive)	> 100 µM (inactive)	> 100 µM (inactive)	> 100 µM (inactive)	> 100 µM (inactive)	–	> 100 µM (inactive)	> 100 µM (inactive)	> 100 µM (inactive)	–	–	–	> 100 µM (inactive)	> 100 µM (inactive)	> 100 µM (inactive)
CC1(C)[N+]([O-])=[N+]([O-])C1(C)Br (stereo unspecified)	> 100 µM (inactive)	> 100 µM (inactive)	> 100 µM (inactive)	> 100 µM (inactive)	> 100 µM (inactive)	43.8 µM (inactive)	> 100 µM (inactive)	> 100 µM (inactive)	> 100 µM (inactive)	–	> 100 µM (inactive)	> 100 µM (inactive)	> 100 µM (inactive)	> 100 µM (inactive)	> 100 µM (inactive)	–	> 100 µM (inactive)	–	> 100 µM (inactive)	> 100 µM (inactive)
CCN(CC)CCC(=O)Nc1ccc2sc3ccccc3c(=O)c2n1	16.3 µM (inactive)	18 µM (inactive)	16.5 µM (inactive)	13.1 µM (inactive)	16.7 µM (inactive)	–	17.1 µM (inactive)	12.5 µM (inactive)	17.3 µM (inactive)	–	14.5 µM (inactive)	18.9 µM (inactive)	12.5 µM (inactive)	> 10 µM (inactive)	20.6 µM (inactive)	7.98 µM (inactive)	12.9 µM (inactive)	0.02 µM (active)	23.1 µM (inactive)	15.6 µM (inactive)
CC(=O)Oc1c(C)cc(-c2cc(C)c(OC(C)=O)c(C)c2)cc1C	17.9 µM (inactive)	–	40.9 µM (inactive)	3.05 µM (inactive)	27.6 µM (inactive)	–	36 µM (inactive)	41.1 µM (inactive)	42.4 µM (inactive)	–	31 µM (inactive)	43.7 µM (inactive)	36.3 µM (inactive)	–	19.5 µM (inactive)	35.2 µM (inactive)	50.4 µM (inactive)	36.3 µM (inactive)	39.9 µM (inactive)	10.8 µM (inactive)
Nc1ncnc2c1ncn2C1OC(COC2C(CO)OC(OC(C(=O)O)C(O)C(OP(=O)(O)O)C(O)C(=O)O)C(O)C2O)C(O)C1O (stereo unspecified)	> 100 µM (inactive)	90.2 µM (inactive)	> 100 µM (inactive)	> 100 µM (inactive)	> 100 µM (inactive)	–	> 100 µM (inactive)	> 100 µM (inactive)	> 100 µM (inactive)	> 100 µM (inactive)	> 100 µM (inactive)	> 100 µM (inactive)	> 100 µM (inactive)	> 100 µM (inactive)	> 100 µM (inactive)	> 100 µM (inactive)	> 100 µM (inactive)	–	> 100 µM (inactive)	> 100 µM (inactive)
COC1C(OC(=O)c2ccc(C)[nH]2)C(O)C(Oc2ccc3c(O)c(NC(=O)c4ccc(O)c(CC=C(C)C)c4)c(=O)oc3c2Cl)OC1(C)C (stereo unspecified)	12.5 µM (inactive)	18 µM (inactive)	15.5 µM (inactive)	30.2 µM (inactive)	16.3 µM (inactive)	–	17.3 µM (inactive)	16.4 µM (inactive)	24.3 µM (inactive)	17.9 µM (inactive)	18.1 µM (inactive)	15.9 µM (inactive)	15.8 µM (inactive)	21.1 µM (inactive)	20.4 µM (inactive)	26.3 µM (inactive)	15.9 µM (inactive)	–	21.2 µM (inactive)	17 µM (inactive)
Nc1cc(Cl)ccc1SSc1ccc(Cl)cc1N	9.51 µM (inactive)	12 µM (inactive)	10.1 µM (inactive)	12.9 µM (inactive)	15.9 µM (inactive)	10.3 µM (inactive)	14.7 µM (inactive)	9.16 µM (inactive)	23.1 µM (inactive)	–	3.07 µM (inactive)	14.8 µM (inactive)	13.2 µM (inactive)	5.6 µM (inactive)	15.7 µM (inactive)	16 µM (inactive)	16.8 µM (inactive)	41.7 µM (inactive)	12.5 µM (inactive)	9.91 µM (inactive)
OC(Cc1ccc2ccccc2n1)(C(F)(F)Cl)C(F)(F)Cl	> 10 µM (inactive)	> 10 µM (inactive)	> 10 µM (inactive)	> 10 µM (inactive)	> 10 µM (inactive)	–	> 10 µM (inactive)	> 10 µM (inactive)	> 10 µM (inactive)	> 10 µM (inactive)	> 10 µM (inactive)	> 10 µM (inactive)	> 10 µM (inactive)	> 10 µM (inactive)	> 10 µM (inactive)	–	> 10 µM (inactive)	> 10 µM (inactive)	> 10 µM (inactive)	> 10 µM (inactive)
O=C(O)C12C3C4(C(=O)O)C1C1(C(=O)O)C2C3(C(=O)O)C41 (stereo unspecified)	> 100 µM (inactive)	> 100 µM (inactive)	> 100 µM (inactive)	> 100 µM (inactive)	> 100 µM (inactive)	–	> 100 µM (inactive)	> 100 µM (inactive)	> 100 µM (inactive)	> 100 µM (inactive)	> 100 µM (inactive)	> 100 µM (inactive)	> 100 µM (inactive)	> 100 µM (inactive)	–	> 100 µM (inactive)	> 100 µM (inactive)	> 100 µM (inactive)	> 100 µM (inactive)	> 100 µM (inactive)
COc1ccc(CNC(=O)NCn2cc(-c3ccccc3)nn2)cc1	> 100 µM (inactive)	> 100 µM (inactive)	> 100 µM (inactive)	> 100 µM (inactive)	> 100 µM (inactive)	–	> 100 µM (inactive)	> 100 µM (inactive)	> 100 µM (inactive)	–	> 100 µM (inactive)	> 100 µM (inactive)	> 100 µM (inactive)	> 100 µM (inactive)	–	> 100 µM (inactive)	> 100 µM (inactive)	> 100 µM (inactive)	> 100 µM (inactive)	> 100 µM (inactive)
C[n+]1c(-c2ccccc2)cc2/c(=C\c3ccccc3)c3ccccc3n21	0.738 µM (active)	0.908 µM (active)	1.09 µM (active)	0.726 µM (active)	0.871 µM (active)	1.36 µM (inactive)	0.593 µM (active)	1.25 µM (inactive)	3.96 µM (inactive)	6.32 µM (inactive)	0.582 µM (active)	3.4 µM (inactive)	0.906 µM (active)	0.661 µM (active)	4.14 µM (inactive)	0.0452 µM (active)	0.339 µM (active)	1.69 µM (inactive)	–	–
[O-][S+](c1ccccc1)C1CC2CC3(CCC21O)OCCO3 (stereo unspecified)	> 100 µM (inactive)	–	> 100 µM (inactive)	> 100 µM (inactive)	> 100 µM (inactive)	> 100 µM (inactive)	> 100 µM (inactive)	–	> 100 µM (inactive)	> 100 µM (inactive)	> 100 µM (inactive)	> 100 µM (inactive)	> 100 µM (inactive)	> 100 µM (inactive)	> 100 µM (inactive)	> 100 µM (inactive)	> 100 µM (inactive)	> 100 µM (inactive)	> 100 µM (inactive)	–
O=C(O)c1cccc(S(=O)(=O)NN2C(=O)CSC2c2c(O)ccc3ccccc23)c1 (stereo unspecified)	41.3 µM (inactive)	22.2 µM (inactive)	18 µM (inactive)	37.6 µM (inactive)	26.4 µM (inactive)	45 µM (inactive)	32.5 µM (inactive)	19.6 µM (inactive)	41.5 µM (inactive)	24.5 µM (inactive)	16 µM (inactive)	79.3 µM (inactive)	39.4 µM (inactive)	26.8 µM (inactive)	37.7 µM (inactive)	28 µM (inactive)	38 µM (inactive)	–	34.7 µM (inactive)	–
Cc1cn(CC2=NC3CCCCC3N2)c(=O)[nH]c1=O (stereo unspecified)	–	–	> 100 µM (inactive)	–	> 100 µM (inactive)	> 100 µM (inactive)	> 100 µM (inactive)	> 100 µM (inactive)	> 100 µM (inactive)	> 100 µM (inactive)	> 100 µM (inactive)	> 100 µM (inactive)	> 100 µM (inactive)	> 100 µM (inactive)	> 100 µM (inactive)	> 100 µM (inactive)	> 100 µM (inactive)	> 100 µM (inactive)	> 100 µM (inactive)	> 100 µM (inactive)
Cc1ccc(S(=O)(=O)NC(=O)NCc2ccc(S(N)(=O)=O)cc2)cc1	> 100 µM (inactive)	> 100 µM (inactive)	> 100 µM (inactive)	> 100 µM (inactive)	> 100 µM (inactive)	> 100 µM (inactive)	> 100 µM (inactive)	> 100 µM (inactive)	> 100 µM (inactive)	> 100 µM (inactive)	–	> 100 µM (inactive)	> 100 µM (inactive)	> 100 µM (inactive)	> 100 µM (inactive)	> 100 µM (inactive)	> 100 µM (inactive)	> 100 µM (inactive)	> 100 µM (inactive)	–

From ChEMBL document CHEMBL1201862, “PubChem BioAssay data set” (2004)
